Assay results published in US6008240A, “2-(1H-4(5)-imidazoyl) cyclopropyl derivatives” (Gliatech, Inc., priority 1997, dated 1999).

Molecular target: T1, Histamine H3 Receptor (Rattus norvegicus, UniProt Q9QYN8)
T1 construct: from tissue; host or cells: rat cerebral cortex membranes
Experiment: In Vitro Histamine H3 Receptor Binding Analysis ([3H]-Nα-methylhistamine, rat cortical membranes)
Conditions: not given
Method: Histamine H3 receptor affinity was determined in rat cortical membranes using the H3 selective agonist ligand, [^3 H]-N^α -methylhistamine (78.9 Ci/mmole, DuPont NEN Research Products, Boston, Mass.) according to the method of West et al., (1990) Mol. Pharmacol. 38: 610-613 with modifications. Briefly, animals were sacrificed by decapitation and the cerebral cortex was rapidly removed. Rat cortices were mechanically homogenized with an Omni 1000 motor driven homogenizer in 10 volumes (wt/vol) of Krebs-Ringers Hepes buffer (pH 7.4) containing the following protease inhibitors; EDTA (10 mmol), PMSF (0.1 mM), chymostatin (0.2 mg/50 mL) and leupeptin (0.2 mg/50 mL). The homogenate was centrifuged in a Sorvall at ~40,000 x g for 30 min. The pellet was resuspended by mechanical homogenization in 25 mL water and lysed on ice for 30 min. The homogenate was recentrifuged and the membrane lysis was repeated. The membranes were recentrifuged and the final pellet was resuspended in 14 volumes of water to give approximately 200 μg protein/100 μl final concentration. The suspension was stored at -80° C. prior to use. Protein concentrations were determined by Coomassie Plus Protein Assay (Pierce, Rockford, Ill.).
Nonspecific binding (NSB) was accounted for by the inclusion of thioperamide (10 μM). Samples were incubated for 40 minutes at 25° C. The samples were filtered through glass fiber strips, pre-washed with 0.3% polyethyleneimine, using a Brandell cell harvester. The filters were rapidly washed three times with 4 ml of 25 mM Tris buffer containing 145 mM NaCl (pH 7.4, 4° C.). Filters were transferred to polyethylene minivials and counted in 3.5 ml of scintillation fluid (Ecolume, ICN Biomedicals, Inc.). Using this procedure, the non-specific binding was less than 10% of the total binding and the binding to the glass fiber filters was negligible. Saturation and competition experiments were analyzed with the ReceptorFit saturation and competition curve fitting programs (Lundon Software, Inc., Cleveland, Ohio).

T1 sequence (Q9QYN8 whole entry): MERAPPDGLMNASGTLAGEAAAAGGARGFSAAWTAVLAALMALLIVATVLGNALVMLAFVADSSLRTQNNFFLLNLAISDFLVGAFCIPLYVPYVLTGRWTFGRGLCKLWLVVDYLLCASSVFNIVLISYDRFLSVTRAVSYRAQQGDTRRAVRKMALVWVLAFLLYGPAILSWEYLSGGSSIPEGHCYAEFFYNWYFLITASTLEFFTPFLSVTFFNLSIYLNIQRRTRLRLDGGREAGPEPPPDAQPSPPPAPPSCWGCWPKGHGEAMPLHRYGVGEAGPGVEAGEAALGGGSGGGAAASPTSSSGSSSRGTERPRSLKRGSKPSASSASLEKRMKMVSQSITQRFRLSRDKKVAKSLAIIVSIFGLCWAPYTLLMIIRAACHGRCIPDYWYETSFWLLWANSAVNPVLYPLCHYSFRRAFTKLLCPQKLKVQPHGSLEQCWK

Question: With `O=C(N[C@@H]1C[C@H]1c1cnc[nH]1)OCCC1CCCC1` (relative stereo) [Example 49, (±)-trans-(2-Cyclopentylethoxy)-N-(2-imidazol-4-ylcyclopropyl) formamide] as the compound, how does the Ki read?
Answer: 13 ± 1.5 nM

Question: Which Ki does the source give for `O=C(N[C@@H]1C[C@H]1c1cnc[nH]1)OCc1ccccc1Br` (relative stereo) [Example 50, (±)-trans-(2-Bromophenyl)methoxy)-N-(2-imidazol-4-ylcyclopropyl) formamide] here?
Answer: 8 ± 0.43 nM

Question: For `O=C(N[C@@H]1C[C@H]1c1cnc[nH]1)OCc1cccc(Br)c1` (relative stereo) [Example 51, (±)-trans-((3-Bromophenyl)methoxy)-N-(2-imidazol-4-ylcyclopropyl) formamide], which Ki is on record?
Answer: 9.9 ± 0.35 nM

Question: For `COC(=O)/C=C\[C@@H]1C[C@H]1c1cnc[nH]1` (relative stereo) [Example 53, (±) trans-Methyl-3-(2-imidazol-4-ylcyclopropyl)prop-2-enoate], which Ki is on record?
Answer: 21.6 ± 3.6 nM

Question: Which Ki does the source give for `N[C@@H](CC1CCCCC1)C(=O)N[C@@H]1C[C@H]1c1cnc[nH]1` [Example 12, (1R,2R)-trans-2-(S)-amino-3-cyclohexyl-N-(2-imidazol-4-ylcyclopropyl)propanamide] here?
Answer: 1.85 ± 0.5 nM

Question: For `N[C@@H](CC1CCCCC1)C(=O)N[C@H]1C[C@@H]1c1cnc[nH]1` [Example 13, (1S,2S)-trans-2-(S)-amino-3-cyclohexyl-N-(2-imidazol-4-ylcyclopropyl)propanamide], which Ki is on record?
Answer: 21.5 ± 1.8 nM

Question: With `O=C(N[C@@H]1C[C@H]1c1c[nH]cn1)[C@@H]1CC2CCCCC2N1` (stereo partly drawn) [Example 14, (2R, 3R)-trans-(7-Azabicyclo[4.3.0]non-(S)-8-yl)-N-(2-imidazol-4-ylcyclopropyl)formamide] as the compound, how does the Ki read?
Answer: 8.5 ± 0.7 nM

Question: Which Ki does the source give for `O=C(N[C@H]1C[C@@H]1c1c[nH]cn1)[C@@H]1CC2CCCCC2N1` (stereo partly drawn) [Example 15, (2S, 3S)-trans-(7-Azabicyclo[4.3.0]non-(S)-8-yl)-N-(2-imidazol-4-ylcyclopropyl)formamide] here?
Answer: 37 ± 4 nM

Question: With `C(=C/[C@@H]1C[C@H]1c1c[nH]cn1)/CCC1CCCCC1` [Example 23, (1R, 2R)-trans-4-(2-(4-Cyclohexylbut-cis-1-enyl)cyclopropyl)imidazole] as the compound, how does the Ki read?
Answer: 6.2 ± 0.8 nM

Question: With `C(=C\[C@H]1C[C@@H]1c1c[nH]cn1)/CCC1CCCCC1` [Example 25, (1S, 2S)-trans-4-(2-(4-Cyclohexylbut-trans-1-enyl)cyclopropyl)imidazole] as the compound, how does the Ki read?
Answer: 56 ± 9 nM

Question: Which Ki does the source give for `O=C(NCCCC1CCCCC1)[C@H]1C[C@@H]1c1cnc[nH]1` [Example 30] here?
Answer: 42 ± 7 nM

Question: Which Ki does the source give for `CC(C)(C)CC/C=C\[C@H]1C[C@H]1c1c[nH]cn1` [Example 42, (1R,2R)-4-(2-(5,5-Dimethyl-cis-hex-1-enyl)cyclopropyl)imidazole] here?
Answer: 41 ± 4 nM

Same assay, conditions: rat cortical membranes; 0.8-1.2 nM [3H]-Nα-methylhistamine; 40 minutes at 25° C.; pH 7.4; read-out: H3 Receptor Ki

Question: Which Ki does the source give for `O=C(N[C@@H]1C[C@H]1c1cnc[nH]1)OCCCc1ccccc1` (relative stereo) [Example 47, (±)-trans-N-(2-imidazol-4-ylcyclopropyl)(3-phenylpropoxy)formamide] here?
Answer: 41 ± 3.4 nM

Question: Which Ki does the source give for `O=C(N[C@@H]1C[C@H]1c1cnc[nH]1)OCCCC1CCCCC1` (relative stereo) [Example 48, (±)-trans-(3-Cyclohexylpropoxy)-N-(2-imidazol-4-ylcyclopropyl) formamide] here?
Answer: 55 ± 11 nM

Question: With `O=C(NCC1CCCCC1)[C@@H]1C[C@H]1c1c[nH]cn1` [Example 2b] as the compound, how does the Ki read?
Answer: 176 ± 9 nM

Question: With `C(=C/[C@H]1C[C@@H]1c1c[nH]cn1)/CCC1CCCCC1` [Example 24, (1S, 2S)-trans-4-(2-(4-Cyclohexylbut-cis-1-enyl)cyclopropyl)imidazole] as the compound, how does the Ki read?
Answer: 108 ± 3 nM

Question: Which Ki does the source give for `O=C(NCCC1CCCCC1)C1CC1c1c[nH]cn1` [Example 27, (1S, 2S)-trans-N-(2-Cyclohexylethyl)(2-imidazol-4-ylcyclopropyl)formamide] here?
Answer: 8.8 ± 0.1 nM

Question: For `O=C(NCCC1CCCCC1)C1CC1c1c[nH]cn1` [Example 28, (1R, 2R)-trans-N-(2-Cyclohexylethyl)(2-imidazol-4-ylcyclopropyl)formamide], which Ki is on record?
Answer: 46 ± 13 nM

Question: For `CC(C)(C)CCC#C[C@@H]1C[C@H]1c1c[nH]cn1` [Example 39, (1R,2R)-4-(2-(5,5-Dimethylhex-1-ynyl)cyclopropyl)imidazole], which Ki is on record?
Answer: 0.15 ± 0.04 nM

Question: Which Ki does the source give for `N[C@@H](Cc1ccc(I)cc1)C(=O)N[C@@H]1C[C@H]1c1cnc[nH]1` [Example 44] here?
Answer: 10.4 ± 1.6 nM

Question: With `N[C@@H](Cc1ccc(Br)cc1)C(=O)N[C@@H]1C[C@H]1c1c[nH]cn1` [Example 45] as the compound, how does the Ki read?
Answer: 9.4 ± 1.1 nM

Question: For `CC(C)(C)CCC#C[C@H]1C[C@@H]1c1cnc[nH]1` [Example 52, (1S,2S)-trans-4-(2-(5,5-Dimethylhex-1-ynyl)cyclopropyl)imidazole], which Ki is on record?
Answer: 5.3 ± 0.5 nM

Same assay, conditions: read-out: H3 Receptor Ki; rat cortical membranes; 0.8-1.2 nM [3H]-Nα-methylhistamine; 40 minutes at 25° C.; pH 7.4

Question: For `O=C(NCC1CCCCC1)[C@H]1C[C@@H]1c1c[nH]cn1` [Example 2a], which Ki is on record?
Answer: 23 ± 1 nM

Question: Which Ki does the source give for `N[C@H](/C=C/[C@@H]1C[C@H]1c1c[nH]cn1)CC1CCCCC1` [Example 20, (1R,2R)-trans-1-Cyclohexyl-4-(2-imidazol-4-ylcyclopropyl)but-trans-3-en-2(S)-ylamine] here?
Answer: 0.37 ± 0.2 nM

Question: For `N[C@H](/C=C\[C@@H]1C[C@H]1c1c[nH]cn1)CC1CCCCC1` [Example 21, (1R,2R)-trans-1-Cyclohexyl-4-(2-imidazol-4-ylcyclopropyl)but-cis-3-en-2(S)-ylamine], which Ki is on record?
Answer: 97.7 ± 28 nM

Tested on: not given
Experiment: not given
Conditions: dose-dependent; species not printed in this sentence (preceding sentence: cat); cited from earlier work

Question: With `S=C(NC1CCCCC1)N1CCC(c2cnc[nH]2)CC1` [thioperamide] as the compound, how does the wakefulness read?
Answer: enhanced wakefulness in a dose-dependent fashion

Tested on: H3 receptor
Experiment: not given
Conditions: cited from earlier work

Question: With `COc1ccc(CC(=NO)C(=O)NCCc2c[nH]cn2)cc1Br` as the compound, how does the “activity in an H3 receptor assay” value read?
Answer: active in an H3 receptor assay

Tested on: H3
Experiment: not given
Conditions: cited from earlier work

Question: For `COc1ccc(CC(=NO)C(=O)NCCc2c[nH]cn2)cc1Br`, which “H3 antagonism on guinea pig ileum” value is on record?
Answer: H3 antagonist on guinea pig ileum

Tested on: not given
Experiment: not given
Conditions: intraventricular; rabbits; cited from earlier work

Question: For `NCCc1c[nH]cn1` [histamine], which “arousal EEG pattern” value is on record?
Answer: induces the appearances of an arousal EEG pattern

Tested on: not given
Experiment: not given
Conditions: intraventricular; saline and pentobarbital-treated rats; cited from earlier work

Question: With `NCCc1c[nH]cn1` [histamine] as the compound, how does the “spontaneous locomotor activity, grooming and exploratory behavior” value read?
Answer: increased spontaneous locomotor activity, grooming and exploratory behavior
